For 3 compounds, Max inhibition and EC50 results are on record in ChEMBL document CHEMBL1129007, “The design and synthesis of novel adenosine agonists” (Bioorg Med Chem Lett, 1996).

Experiment [1] in a line: Compound was evaluated for the maximal inhibition of (-)-isoproterenol stimulated cAMP accumulation in DDT-1 MF-2 cells. It is filed as functional, Cricetulus griseus.
The target in another experiment is T1, Adenosine receptor A1 (Homo sapiens, UniProt P30542).
T1 sequence (P30542 whole entry): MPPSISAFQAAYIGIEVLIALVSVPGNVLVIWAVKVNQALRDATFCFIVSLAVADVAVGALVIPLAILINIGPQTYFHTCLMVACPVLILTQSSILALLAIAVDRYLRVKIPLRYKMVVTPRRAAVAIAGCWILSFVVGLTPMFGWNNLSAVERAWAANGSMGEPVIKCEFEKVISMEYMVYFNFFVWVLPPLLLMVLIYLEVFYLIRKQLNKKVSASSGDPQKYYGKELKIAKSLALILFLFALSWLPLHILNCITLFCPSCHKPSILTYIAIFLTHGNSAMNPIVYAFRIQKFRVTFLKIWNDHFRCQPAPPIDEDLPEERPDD
Put plainly: Compound was evaluated for the Adenosine A1 receptor agonist potency. It is filed as functional, Cricetulus griseus.

In experiment [1], `OC[C@H]1O[C@@H](n2cnc3c(NC4CCCC4)ncnc32)[C@H](O)[C@@H]1O` [N6-CYCLOPENTYLADENOSINE] displayed a Max inhibition of 80%.

Turning to `OC[C@H]1O[C@@H](n2cnc3c(N[C@H]4CC5CC4C4OC54)ncnc32)[C@H](O)[C@@H]1O` (stereo not given in full), in experiment [1], the Max inhibition is 81%. In addition, at Adenosine receptor A1, the EC50 (usually the concentration needed to bring the measured effect to its halfway point) came out at 0.81 nM.

`OC[C@H]1O[C@@H](n2cnc3c(N[C@@H]4CC5CC4C4OC54)ncnc32)[C@H](O)[C@@H]1O` (stereo not given in full): in experiment [1], the Max inhibition is 82%. At Adenosine receptor A1, a half-maximal effect (EC50) was put at 10 nM.
